In brackets after ≈: the same amount, converted by molar mass.
What was measured:
Assay in all cases: In vitro antifungal susceptibility CLSI M27-A2 (MIC, MFC)
Assay type in all cases: cell-based
C. parapsilosis = C. parapsilosis (10)
[1] = tested on: Other Candida species (C. lipolytica, C. sake, C. sphaerica, C. norvegica); conditions: Other Candida spp. (4)
C. glabrata = C. glabrata (10)
C. tropicalis = C. tropicalis (10)
C. guilliermondii = C. guilliermondii (2)
C. lusitaniae = C. lusitaniae (10)
C. krusei = C. krusei (10)
C. rugosa = C. rugosa (2)
C. albicans = C. albicans (10)
C. kefyr = C. kefyr (10)

In the case of `C[C@@H](c1ncncc1F)[C@](O)(Cn1cncn1)c1ccc(F)cc1F` [Voriconazole, voriconazole], the “MIC Range” value (C. parapsilosis) is reported as under 0.03 to 0.12 µg/mL, the MIC (C. parapsilosis; Lodderomyces parapsilosis, read-out: GM (geometric mean MIC)) is reported as 0.04 µg/mL (≈ 0.115 µM) and the MIC50 (C. parapsilosis; Lodderomyces parapsilosis, read-out: MIC50) is reported as under 0.03 µg/mL. For the same molecule, the MIC90 (C. parapsilosis; Lodderomyces parapsilosis, read-out: MIC90) was 0.03 µg/mL (≈ 0.0859 µM), the “MIC Range” value [1] was under 0.03 to 1.0 µg/mL and the MIC ([1]; read-out: GM (geometric mean MIC)) was 0.39 µg/mL (≈ 1.12 µM). For the same molecule, the MIC50 ([1]; read-out: MIC50) was 0.06 µg/mL (≈ 0.172 µM), the “MIC Range” value (C. glabrata) was 0.12 to 2 µg/mL and the MIC (C. glabrata; Nakaseomyces glabratus, read-out: GM (geometric mean MIC)) was 0.56 µg/mL (≈ 1.6 µM). For the same molecule, the MIC50 (C. glabrata; Nakaseomyces glabratus, read-out: MIC50) was 0.5 µg/mL (≈ 1.43 µM), the MIC90 (C. glabrata; Nakaseomyces glabratus, read-out: MIC90) was 0.5 µg/mL (≈ 1.43 µM) and the “MIC Range” value (C. tropicalis) was under 0.03 to 0.5 µg/mL. For the same molecule, the MIC (C. tropicalis; Candida tropicalis, read-out: GM (geometric mean MIC)) was 0.13 µg/mL (≈ 0.372 µM), the MIC50 (C. tropicalis; Candida tropicalis, read-out: MIC50) was 0.06 µg/mL (≈ 0.172 µM) and the MIC90 (C. tropicalis; Candida tropicalis, read-out: MIC90) was 0.12 µg/mL (≈ 0.344 µM). For the same molecule, the “MIC Range” value (C. guilliermondii) was 0.06 µg/mL (≈ 0.172 µM), the MIC (C. guilliermondii; Meyerozyma guilliermondii, read-out: GM (geometric mean MIC)) was 0.06 µg/mL (≈ 0.172 µM) and the “MIC Range” value (C. lusitaniae) was under 0.03 to 0.06 µg/mL. It also gave an MIC (C. lusitaniae; Clavispora lusitaniae, read-out: GM (geometric mean MIC)) of 0.03 µg/mL (≈ 0.0859 µM), an MIC50 (C. lusitaniae; Clavispora lusitaniae, read-out: MIC50) of under 0.03 µg/mL and an MIC90 (C. lusitaniae; Clavispora lusitaniae, read-out: MIC90) of 0.03 µg/mL (≈ 0.0859 µM). The “MIC Range” value (C. krusei) was 0.25 to 0.5 µg/mL, the MIC (C. krusei; Pichia kudriavzevii, read-out: GM (geometric mean MIC)) was 0.425 µg/mL (≈ 1.22 µM) and the MIC50 (C. krusei; Pichia kudriavzevii, read-out: MIC50) was 0.25 µg/mL (≈ 0.716 µM). For the same molecule, the MIC90 (C. krusei; Pichia kudriavzevii, read-out: MIC90) was 0.5 µg/mL (≈ 1.43 µM), the “MIC Range” value (C. rugosa) was 0.25 µg/mL (≈ 0.716 µM) and the MIC (C. rugosa; Diutina rugosa, read-out: GM (geometric mean MIC)) was 0.25 µg/mL (≈ 0.716 µM). The “MIC Range” value (C. albicans) was under 0.03 to 0.25 µg/mL, the MIC (C. albicans; Candida albicans, read-out: GM (geometric mean MIC)) was 0.06 µg/mL (≈ 0.172 µM) and the MIC50 (C. albicans; Candida albicans, read-out: MIC50) was 0.03 µg/mL (≈ 0.0859 µM). The MIC90 (C. albicans; Candida albicans, read-out: MIC90) was 0.06 µg/mL (≈ 0.172 µM), the “MIC Range” value (C. kefyr) was under 0.03 to 16 µg/mL and the MIC (C. kefyr; Kluyveromyces marxianus, read-out: GM (geometric mean MIC)) was 1.63 µg/mL (≈ 4.67 µM). The MIC50 (C. kefyr; Kluyveromyces marxianus, read-out: MIC50) was under 0.03 µg/mL and the MIC90 (C. kefyr; Kluyveromyces marxianus, read-out: MIC90) was 0.6 µg/mL (≈ 1.72 µM).

— patent US9212201B2, “Antifungal and antiparasitic polyene macrolides” (priority 2010, dated 2015)
